# Test results published in patent publication USRE38825E1, “Glyphosate tolerant plants” (Monsanto Technology LLC, priority 1990, dated 2005).
# Read-outs that look alike come from different tables or passages of the source.
# B1: v.247: glyphosate oxidoreductase variant (SEQ ID NO:18); GLY84, ARG153, ARG334 (protein)
# chain: MAENHKKVGIAGAGIVGVCTALMLQRRGFKVTLIDPNPPGEGASFGNAGCFNGSSVVPMSMPGNLTSVPKWLLDPMGPLSIRFGYFPTIMPWLIRFLLAGRPNKVKEQAKALRNLIKSTVPLIKSLAEEADASHLIRHEGHLTVYRGEADFARDRGGWELRRLNGVRTQILSADALRDFDPNLSHAFTKGILIEENGHTINPQGLVTLLFRRFIANGGEFVSARVIGFETEGRALKGITTTNGVLAVDAAVVAAGAHSKSLANSLGDDIPLDTERGYHIVIANPEAAPRIPTTDASGKFIATPMEMGLRVAGTVEFAGLTAAPNWKRAHVLYTRARKLLPALAPASSEERYSKWMGFRPSIPDSLPVIGRATRTPDVIYAFGHGHLGMTGAPMTATLVSELLAGEKTSIDISPFAPNRFGIGKSKQTGPAS
# What was measured:
# [1] = molecular target: LBAA glyphosate oxidoreductase variant v.247 (v1v2v3: GLY84, ARG153, ARG334), SEQ ID NO:18 (Ochrobactrum sp. G-1, UniProt D2KI28, H334R/K153R/S2A/S84G); test: Kinetic analysis of glyphosate oxidoreductase variant v.247; type: biochemical, bacterial isolate LBAA (Pseudomonas strain LBAA); conditions: v.247
# Experimental: The mutagenesis procedure used was that of Mn++-poisoned PCR and the template was a linearized glyphosate oxidoreductase gene plasmid containing the synthetic glyphosate oxidoreductase gene (SEQ ID NO:8). The oligonucleotide primers used were homologous to regions in the vector and flanking the glyphosate oxidoreductase gene. The PCR conditions employed were as follows: 1 minute at 94° C., 2 minutes at 55° C., and 3 minutes at 72° C. and with 35 cycles. A 5:1 ratio of dCTP+dGTP+TTP to dATP was used. The reactions contained MnCl2 at 125, 250, 375, or 500 μM. After the reaction, the amplified product was recloned into a vector containing a weak E. coli promoter. This vector was a pBR327 derivative containing the araBAD promoter and suitable cloning sites. One hundred colonies from this cloning step were then screened in E. coli GB993 for improved glyphosate tolerance and utilization phenotypes in media composed of MOPS minimal medium with glyphosate and Pi or with glyphosate alone, respectively. Growth rates were determined by measuring A550 over a 96 hour period. […] The glyphosate oxidoreductase gene was recloned into the expression vector portion and this phenotype verified. All kinetic analysis was performed on crude E. coli lysates. Putative glyphosate oxidoreductase variant proteins were overexpressed after subcloning the NcoI/HindIII variant glyphosate oxidoreductase gene into PrecA-gene10L expression vector. For overexpression in PrecA-gene10L constructs, GB993 cells containing the vector were induced at a Klett=110-120 in M9 minimal medium with 50 μg/ml nalidixic acid and allowed to grow for 2.5 hours at 37° C. with vigorous shaking. Cells were harvested by centrifugation at 4000 g, 5 minutes at 4° C., and resuspend in 100 mM Tris-HCl, pH 7.1, 1 mM EDTA, 35 mM KCl, 20% glycerol, and 1 mM benzamidine at 3 ml/g cell pellet. Lysates were prepared by breaking the cells in a French press, twice, at 1000 psi. Insoluble debris was removed by centrifugation at 12000 g, 15 minutes at 4° C., and the supernatant was de-salted by passing over a PD-10 column (Sephadex G-25, Pharmacia). The void volume fraction was used as the source of enzyme for kinetic analysis. Protein concentrations were determined using the Bio-Rad protein dye-binding assay. Time and enzyme concentration courses were performed to determine linear ranges. […] Ten minutes was determined to be the optimal time for the enzyme assay using 10 μg lysate. After 10 minutes at 30° C. with shaking, 0.25 ml dinitrophenylhydrazine (DNPH) reagent (0.5 mg/ml in 0.5M HCl) was added and the reaction was allowed to proceed for an additional 5 minutes at 30° C. with shaking. A 1.5M NaOH solution (400 μl) was then added to the assay mix, and the reaction was continued for 5 minutes at 30° C. with shaking. Enzyme activity was determined from the amount of glyoxylate-DNPH adduct formed by measuring A520 against a standard of glyoxylate. Enzyme assays are performed in duplicate on at least two different single colony isolates of a putative glyphosate oxidoreductase variant. To determine Km and Vmax, enzyme assays were performed over a (0.2-2.0)×Km range of glyphosate concentrations. The Km and Vmax were determined from Lineweaver Burk, Eadie-Hofstee and hyperbolic kinetic plots. Vmax was estimated after determining the amount of immunoreactive glyphosate oxidoreductase protein in lysates by immunoblot analysis as described below. Immunoblot analysis was performed following SDS-PAGE and transfer of protein from the gel to nitrocellulose at 500 mA in a Hoeffer transfer apparatus in 25 mM Tris-HCl, 192 mM glycine containing 0.1% SDS and 25% methanol for 1-2 hours. After transfer, the nitrocellulose was incubated with 50 mM Tris-HCl, pH7.5, 0.9% NaCl, 0.01% Tween 20, 0.02% NaN3 containing 2% bovine serum albumin at room temperature with shaking for at least 30 minutes. […]
# [2] = molecular target: LBAA glyphosate oxidoreductase variant ARG 334 (His334 to Arg) (Ochrobactrum sp. G-1, UniProt D2KI28, H334R/S2A); test: Kinetic analysis of glyphosate oxidoreductase variant ARG 334 (site-directed mutagenesis); type: biochemical, bacterial isolate LBAA (Pseudomonas strain LBAA)
# [3] = tested on: glyphosate oxidoreductase; test: Glyphosate oxidoreductase activity in isolated chloroplasts from transgenic tobacco; type: biochemical, Nicotiana tabacum; conditions: substrate 50 mM; 30 minute assays; without ubiquinone; chloroplasts of plants #22844, 22854, 22886, 22887
# [4] = tested on: glyphosate oxido-reductase from LBAA; test: Glyphosate oxidoreductase reaction with substrates; type: biochemical; conditions: oxidation to glycine and glyoxylate
# Text: The enzyme glyphosate oxidoreductase catalyzes the cleavage of the C-N bond of glyphosate yielding aminomethyl phosphonate (AMPA) and glyoxylate as the reaction products. Under aerobic conditions, oxygen is utilized as a cosubstrate for the reaction. Other electron carriers such as phenazine methosulfate and ubiquinone stimulate the reaction under aerobic conditions. In the absence of oxygen, these compounds act as electron acceptors.
# The enzymatic reaction can be assayed by oxygen uptake using an oxygen electrode. […] This enzyme has a stoichiometry of two moles of glyphosate oxidized per mole of oxygen consumed and produces two moles each of AMPA and glyoxylate as reaction products.
# In addition to glyphosate, glyphosate oxido-reductase from LBAA oxidizes iminodiacetic acid (IDA) to glycine and glyoxylate.
# most plant species [5] = conditions: in vivo; cited from earlier work
# most plant species [6] = conditions: Franz, 1985; cited from earlier work
# [7] = Kinetic analysis of glyphosate oxidoreductase variants in crude E. coli lysates (glyoxylate-DNPH assay), substrate glyphosate; type: biochemical; conditions: 25 mM glyphosate
# Text: Using this PCR approach, glyphosate oxidoreductase genes from a number of sources have been isolated. The presence of the glyphosate oxidoreductase activity was confirmed by cloning the glyphosate oxidoreductase gene from chromosomal DNA prepared from Pseudomonas sp. strain LBr (Jacob et al., 1988) and using primers homologous to the N- and C-termini of the LBAA glyphosate oxidoreductase gene and containing the following suitable restriction cloning sites: 5′-[…]-3′ (SEQ ID NO:13) and 5′-[…]-3′ (SEQ ID NO:14). Cyclotherm parameters used for these PCR reactions is as follows: • Denature at 94° C. for 1 minute; • Anneal at 60° C. for 2 minutes; • Polymerize at 72° C. for 3 minutes, • 30 cycles, no autoextension, linked to 4° C. incubation. […]
# A population of bacteria was isolated from a fixed-bed immobilized cell column, which employed Mannville R-635 diatomaceous earth beads, by plating on Tryptone Soy Agar (Difco), containing cylcoheximide at 100 ug/ml, and incubating at 28° C. […] The glyphosate oxidoreductase activity was assayed and the Km for glyphosate also determined:
# The mutagenesis procedure used was that of Mn++-poisoned PCR and the template was a linearized glyphosate oxidoreductase gene plasmid containing the synthetic glyphosate oxidoreductase gene (SEQ ID NO:8). […] Growth rates were determined by measuring A550 over a 96 hour period. […]
molecule,measurement,setting,value
"O=C(O)CNCC(=O)O [IDA, iminodiacetic acid]",Km,"[1]; read-out: spp Km (IDA), pH 7.4, 30° C., crude E. coli lysate",700 µM
same,VmKm (IDA),[1],1.0
same,app Vm (IDA),"[1]; pH 7.4, 30° C.",0.7 U/mg
same,VmKm (IDA),[2],1.2
same,app Vm (IDA),[2],0.6 U/mg
same,Km,[2]; read-out: spp Km (IDA),500 µM
"O=C(O)CNCC(=O)O [Iminodiacetic acid, iminodiacetic acid]",Specific Activity,[3],179 nmol/min/mg
same,rate of the reaction,[4],significantly faster than with glyphosate
"NCP(=O)(O)O [AMPA, aminomethylphosphonate]",phytotoxicity,most plant species [5],much less phytotoxic than glyphosate
same,phytotoxicity,most plant species [6],much less phytotoxic than glyphosate
"O=C(O)CNCP(=O)(O)O [Glyphosate, N-phosphonomethyl-glycine]",Specific Activity,[3],92 nmol/min/mg
B1,fold higher specific activity for glyphosate oxidoreductase,[7],3-4 fold
